According to patent publication US20250360166A1, “Cisplatin particles and uses thereof” (CRITITECH, INC., priority 2021, published 2025):

Legend:
[1] = Particle size distribution by laser diffraction (Malvern Mastersizer 3000, Hydro MV); type: physicochemical; conditions: dispersed in ethyl acetate
Protocol: Particle size analyses were conducted on a Malvern Mastersizer™ 3000 using the Hydro MV dispersion unit. A non-validated general PSD method/dispersant method was used to analyze the cisplatin samples. The sample preparation procedure performed was as follows: Weigh 10 to 20 mg of cisplatin into a 30-mL vial, add 20 mL of ethyl acetate. Disperse the sample by vortexing then sonicating the suspension in an ultrasonic bath for 1 minute. Then transfer the sample suspension to the Malvern Hydro MV dispersion unit to obtain obscuration between 5 and 15%.

[2] = Specific surface area by BET sorptometry; type: physicochemical
From the text: The BET specific surface area test procedure is a compendial method included in both the United States Pharmaceopeia and the European Pharmaceopeia.

[3] = Bulk density (10 mL graduated cylinder, modified USP <616> Method I); type: physicochemical; conditions: not tapped
Protocol: As used herein, the bulk density of the cisplatin particles is the mass of the totality of particles in the composition divided by the total volume they occupy when poured into a graduated cylinder and not tapped. The total volume includes particle volume, inter-particle void volume, and internal pore volume.
Bulk density analyses were conducted using a 10 mL graduated cylinder due to low sample volume.

H69 tumor cells = assay: SCP-Cisplatin pilot study, subcutaneous H69 tumor in NCr nu/nu mice, single intra-tumoral injection; type: in vivo
Protocol: 55 CR female NCr nu/nu mice 8-12 weeks of age at start date were injected subcutaneously in the flank with 1×10^7 H69 tumor cells in 50% Matrigel; cell injection volume was 0.1 mL/mouse. A pair match was performed when tumors reach an average size of 100-150 mm^3, after which treatment was initiated as detailed in Table 2.
Tumor cells implanted on Day 0 and treatments initiated on Day 18 (Mean TV=126 mm^3). There were 5 treatment groups (n=5/group); all receiving IT injections =25 uL; 27G needle. The IT vehicle group was administered ethanol/glycerin/water. Animals were sacrificed at humane endpoint of TV=2000 mm^3 or Study Day 51.

Structure (SMILES)	PSD-Master sizer Dv10 [1] [μm]	PSD-Master sizer Dv50 [1] [μm]	PSD-Master sizer Dv90 [1] [μm]	Surface Area [2] [m^2/g]	Bulk Density [3] [g/mL]	tumor volume of surviving animals on Day 51 (H69 tumor cells; 25 μg/animal intra-tumoral qd × 1)	animals survived on Day 51 (H69 tumor cells; 25 μg/animal intra-tumoral qd × 1, n=5, endpoint TV=2000 mm^3 or Day 51)
N.N.[Cl][Pt][Cl] [Raw, Cisplatin]	1.72	10.9	25.9	2.44	1.01	–	–
N.N.[Cl][Pt][Cl] [Cisplatin]	–	–	–	–	–	increasing tumor volume	3 of 5
